Results taken from ChEMBL document CHEMBL1201862, “PubChem BioAssay data set” (2004).
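1) Cells in 96-well plates. 2) Compound, 48 h, 5 concentrations. 3) Linear interpolation between surrounding doses. 4) Unreached endpoint = highest concentration. GI50 is the concentration that inhibits growth by half.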 The source made the active and inactive calls. Rule as the data show it: active = GI50 up to about 1.1 µM and inactive = higher.

Columns and labels:
Assay in all cases: DTP human tumour cell line panel, 48 h
SF-268 = test system: SF-268
SK-MEL-2 = test system: SK-MEL-2
SN12C = test system: SN12C
NCI-H460 = test system: NCI-H460
SF-295 = test system: SF-295
SW-620 = test system: SW-620
HT-29 = test system: HT-29
OVCAR-3 = test system: OVCAR-3
KM12 = test system: KM12
SNB-19 = test system: SNB-19
OVCAR-8 = test system: OVCAR-8
IGROV-1 = test system: IGROV-1
OVCAR-5 = test system: OVCAR-5
A549 = test system: A549
HOP-62 = test system: HOP-62
RXF 393 = test system: RXF 393
786-0 = test system: 786-0
SK-MEL-28 = test system: SK-MEL-28
HL-60 = test system: HL-60

Measured: GI50

O=C1NC(=S)NC(=O)C1=Cc1ccc(-c2ccccc2)cc1
inactive: SF-268 > 100 µM | SK-MEL-2 > 100 µM | SN12C > 100 µM | NCI-H460 > 100 µM | SF-295 > 100 µM | SW-620 > 100 µM | HT-29 > 100 µM | OVCAR-3 > 100 µM | KM12 > 100 µM | SNB-19 > 100 µM | OVCAR-8 49.8 µM | IGROV-1 > 100 µM | OVCAR-5 > 100 µM | A549 > 100 µM | HOP-62 > 100 µM | RXF 393 94.4 µM | 786-0 > 100 µM

CC(=O)Nc1ccc(C(=O)N2N=C(C)/C(=C/c3cccc(O)c3)C2=O)cc1
inactive: SF-268 > 100 µM | SK-MEL-2 > 100 µM | SN12C > 100 µM | NCI-H460 > 100 µM | SF-295 > 100 µM | SW-620 > 100 µM | HT-29 > 100 µM | OVCAR-3 > 100 µM | SK-MEL-28 > 100 µM | SNB-19 > 100 µM | OVCAR-8 > 100 µM | OVCAR-5 > 100 µM | A549 > 100 µM | HOP-62 > 100 µM | 786-0 > 100 µM

COc1cc2c3cc1Oc1c(O)c(OC)cc4c1C(Cc1ccc(O)c(c1)Oc1ccc(cc1)CC3N(C)CC2)N(C)CC4 (centres undefined)
inactive: SF-268 16.8 µM | SK-MEL-2 23.6 µM | SN12C 15.3 µM | NCI-H460 15.1 µM | SF-295 16.1 µM | SW-620 4.44 µM | HT-29 7.13 µM | OVCAR-3 16.9 µM | SK-MEL-28 18.3 µM | KM12 11.1 µM | HL-60 21.5 µM | SNB-19 26 µM | OVCAR-8 14.3 µM | IGROV-1 26.2 µM | OVCAR-5 22.7 µM | A549 17.6 µM | HOP-62 18.7 µM | RXF 393 2.44 µM | 786-0 13.2 µM

COCOc1ccc(OC)cc1
inactive: SF-268 > 100 µM | SK-MEL-2 > 100 µM | SN12C > 100 µM | NCI-H460 > 100 µM | SF-295 > 100 µM | SW-620 > 100 µM | HT-29 > 100 µM | OVCAR-3 > 100 µM | SK-MEL-28 > 100 µM | KM12 > 100 µM | HL-60 > 100 µM | SNB-19 > 100 µM | OVCAR-8 > 100 µM | IGROV-1 > 100 µM | OVCAR-5 > 100 µM | A549 > 100 µM | HOP-62 > 100 µM | RXF 393 > 100 µM

Cc1n[nH]c(=O)n1N=C(c1ccccc1)c1ccccc1
inactive: SF-268 > 100 µM | SK-MEL-2 > 100 µM | SN12C > 100 µM | NCI-H460 > 100 µM | SF-295 > 100 µM | SW-620 > 100 µM | HT-29 > 100 µM | OVCAR-3 > 100 µM | SK-MEL-28 > 100 µM | KM12 > 100 µM | SNB-19 > 100 µM | OVCAR-8 > 100 µM | IGROV-1 > 100 µM | OVCAR-5 > 100 µM | A549 > 100 µM | HOP-62 > 100 µM | RXF 393 1.26 µM | 786-0 > 100 µM

CC1(C)OCC=CCO1
inactive: SF-268 > 100 µM | SK-MEL-2 > 100 µM | SN12C > 100 µM | NCI-H460 > 100 µM | SF-295 > 100 µM | SW-620 > 100 µM | HT-29 > 100 µM | OVCAR-3 59.7 µM | SK-MEL-28 > 100 µM | KM12 > 100 µM | HL-60 71.4 µM | SNB-19 > 100 µM | OVCAR-8 > 100 µM | IGROV-1 > 100 µM | OVCAR-5 > 100 µM | A549 > 100 µM | HOP-62 > 100 µM | RXF 393 > 100 µM

CCOc1cccc2[s+]snc12
inactive: SF-268 98.4 µM | SK-MEL-2 > 100 µM | SN12C > 100 µM | NCI-H460 > 100 µM | SF-295 > 100 µM | SW-620 > 100 µM | HT-29 > 100 µM | OVCAR-3 30.3 µM | SK-MEL-28 > 100 µM | KM12 > 100 µM | HL-60 30.2 µM | SNB-19 > 100 µM | OVCAR-8 54.3 µM | IGROV-1 > 100 µM | OVCAR-5 > 100 µM | A549 > 100 µM | HOP-62 > 100 µM | RXF 393 > 100 µM | 786-0 > 100 µM

CN(C)CC1CN=C(N)O1 (centres undefined)
inactive: SF-268 > 100 µM | SK-MEL-2 > 100 µM | SN12C > 100 µM | NCI-H460 > 100 µM | SF-295 > 100 µM | SW-620 > 100 µM | OVCAR-3 > 100 µM | SK-MEL-28 > 100 µM | KM12 > 100 µM | SNB-19 > 100 µM | OVCAR-5 > 100 µM | A549 > 100 µM | HOP-62 > 100 µM | RXF 393 > 100 µM | 786-0 > 100 µM
